# Measured values as given in paper PMC10176470, “Engaging a Non-catalytic Cysteine Residue Drives Potent and Selective Inhibition of Caspase-6” (Journal of the American Chemical Society, 2023).
# Tests used:
# Type in all cases: cell-based
# [1] = biological target: proteins of HEK293T cells transiently overexpressing caspase-6 (Homo sapiens, UniProt O43390); settings: exp_ref Probe; protein HNRNPR (O43390); analysis C6
# [2] = biological target: proteins of HEK293T cells transiently overexpressing caspase-6 (Homo sapiens, UniProt P09651); settings: protein HNRNPA1 (P09651)
# [3] = biological target: proteins of HEK293T cells transiently overexpressing caspase-6 (Homo sapiens, UniProt P22087); settings: exp_ref Probe; protein FBL (P22087); analysis C6
# [4] = biological target: proteins of HEK293T cells transiently overexpressing caspase-6 (Homo sapiens, UniProt P27797); settings: exp_ref Probe; protein CALR (P27797); analysis C6
# [5] = biological target: proteins of HEK293T cells transiently overexpressing caspase-6 (Homo sapiens, UniProt P31689); settings: exp_ref Probe; protein DNAJA1 (P31689); analysis C6
# [6] = biological target: proteins of HEK293T cells transiently overexpressing caspase-6 (Homo sapiens, UniProt P33991); settings: exp_ref Probe; protein MCM4 (P33991); analysis C6
# [7] = biological target: proteins of HEK293T cells transiently overexpressing caspase-6 (Homo sapiens, UniProt P36578); settings: exp_ref Probe; protein RPL4 (P36578); analysis C6
# [8] = biological target: proteins of HEK293T cells transiently overexpressing caspase-6 (Homo sapiens, UniProt P38646); settings: protein HSPA9 (P38646)
# [9] = biological target: proteins of HEK293T cells transiently overexpressing caspase-6 (Homo sapiens, UniProt P46060); settings: exp_ref Probe; protein RANGAP1 (P46060); analysis C6
# [10] = biological target: proteins of HEK293T cells transiently overexpressing caspase-6 (Homo sapiens, UniProt Q12905); settings: exp_ref Probe; protein ILF2 (Q12905); analysis C6
# [11] = biological target: proteins of HEK293T cells transiently overexpressing caspase-6 (Homo sapiens, UniProt Q13347); settings: protein EIF3I (Q13347); exp_ref Probe; analysis C6
# [12] = biological target: proteins of HEK293T cells transiently overexpressing caspase-6 (Homo sapiens, UniProt Q14157); settings: Probe; protein UBAP2L Q14157
# [13] = biological target: proteins of HEK293T cells transiently overexpressing caspase-6 (Homo sapiens, UniProt Q14247); settings: exp_ref Probe; protein CTTN (Q14247); analysis C6
# [14] = biological target: proteins of HEK293T cells transiently overexpressing caspase-6 (Homo sapiens, UniProt Q14444); settings: exp_ref Probe; protein CAPRIN1 (Q14444); analysis C6
# [15] = biological target: proteins of HEK293T cells transiently overexpressing caspase-6 (Homo sapiens, UniProt Q15365); settings: protein PCBP1 (Q15365); exp_ref Probe; analysis C6
# [16] = biological target: proteins of HEK293T cells transiently overexpressing caspase-6 (Homo sapiens, UniProt Q86VP6); settings: exp_ref Probe; protein CAND1 (Q86VP6); analysis C6
# [17] = biological target: T1, proteins of HEK293T cells transiently overexpressing caspase-6 (Homo sapiens, UniProt Q8WUM4); settings: protein PDCD6IP (Q8WUM4); exp_ref Probe; analysis C6
# T1 sequence (Q8WUM4 1-868): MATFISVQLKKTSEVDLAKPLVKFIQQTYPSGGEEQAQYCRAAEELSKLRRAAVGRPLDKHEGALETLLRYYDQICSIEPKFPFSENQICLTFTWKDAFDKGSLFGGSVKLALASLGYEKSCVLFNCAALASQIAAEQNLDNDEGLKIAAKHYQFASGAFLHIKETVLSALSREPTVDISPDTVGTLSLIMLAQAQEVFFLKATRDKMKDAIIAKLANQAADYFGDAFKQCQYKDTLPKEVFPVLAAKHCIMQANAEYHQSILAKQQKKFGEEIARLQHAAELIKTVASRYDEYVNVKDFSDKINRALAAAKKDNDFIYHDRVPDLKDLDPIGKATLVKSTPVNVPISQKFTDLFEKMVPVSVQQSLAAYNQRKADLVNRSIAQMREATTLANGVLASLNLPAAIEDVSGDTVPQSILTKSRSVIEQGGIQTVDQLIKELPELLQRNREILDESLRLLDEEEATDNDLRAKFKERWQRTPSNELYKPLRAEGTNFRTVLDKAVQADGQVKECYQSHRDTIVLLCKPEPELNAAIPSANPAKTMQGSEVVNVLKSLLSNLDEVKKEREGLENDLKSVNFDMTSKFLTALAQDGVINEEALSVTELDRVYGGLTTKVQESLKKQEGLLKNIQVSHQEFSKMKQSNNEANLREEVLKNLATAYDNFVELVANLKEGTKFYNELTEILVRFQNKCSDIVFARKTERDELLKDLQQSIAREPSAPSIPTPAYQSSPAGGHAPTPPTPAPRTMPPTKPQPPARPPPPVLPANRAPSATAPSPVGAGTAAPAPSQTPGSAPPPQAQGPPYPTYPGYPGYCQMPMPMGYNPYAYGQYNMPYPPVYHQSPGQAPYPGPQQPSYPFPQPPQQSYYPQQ
# [18] = biological target: proteins of HEK293T cells transiently overexpressing caspase-6 (Homo sapiens, UniProt Q92900); settings: Probe; protein UPF1 Q92900
# [19] = biological target: proteins of HEK293T cells transiently overexpressing caspase-6 (Homo sapiens, UniProt Q9H3N1); settings: protein TMX1 (Q9H3N1); exp_ref Probe; analysis C6
# proteins of HEK293T cells transiently overexpressing caspase-6 (Homo sapiens, UniProt P38646), sequence (P38646 47-679): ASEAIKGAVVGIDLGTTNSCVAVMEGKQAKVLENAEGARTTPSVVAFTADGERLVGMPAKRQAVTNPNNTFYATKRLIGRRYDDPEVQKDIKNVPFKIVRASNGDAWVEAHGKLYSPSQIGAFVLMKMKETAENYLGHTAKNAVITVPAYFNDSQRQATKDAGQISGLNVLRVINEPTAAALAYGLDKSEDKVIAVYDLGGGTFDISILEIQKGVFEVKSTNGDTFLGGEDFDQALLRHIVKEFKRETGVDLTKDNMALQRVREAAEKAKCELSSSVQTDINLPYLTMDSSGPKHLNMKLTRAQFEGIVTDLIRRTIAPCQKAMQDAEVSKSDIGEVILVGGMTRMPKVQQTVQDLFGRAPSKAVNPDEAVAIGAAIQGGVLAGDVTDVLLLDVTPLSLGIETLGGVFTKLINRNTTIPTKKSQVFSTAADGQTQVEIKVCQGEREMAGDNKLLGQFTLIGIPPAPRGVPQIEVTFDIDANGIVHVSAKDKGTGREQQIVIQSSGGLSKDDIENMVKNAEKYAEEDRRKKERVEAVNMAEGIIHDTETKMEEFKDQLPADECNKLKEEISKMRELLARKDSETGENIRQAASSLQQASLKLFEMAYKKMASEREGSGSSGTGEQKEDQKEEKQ
# proteins of HEK293T cells transiently overexpressing caspase-6 (Homo sapiens, UniProt P09651), sequence (P09651 whole entry): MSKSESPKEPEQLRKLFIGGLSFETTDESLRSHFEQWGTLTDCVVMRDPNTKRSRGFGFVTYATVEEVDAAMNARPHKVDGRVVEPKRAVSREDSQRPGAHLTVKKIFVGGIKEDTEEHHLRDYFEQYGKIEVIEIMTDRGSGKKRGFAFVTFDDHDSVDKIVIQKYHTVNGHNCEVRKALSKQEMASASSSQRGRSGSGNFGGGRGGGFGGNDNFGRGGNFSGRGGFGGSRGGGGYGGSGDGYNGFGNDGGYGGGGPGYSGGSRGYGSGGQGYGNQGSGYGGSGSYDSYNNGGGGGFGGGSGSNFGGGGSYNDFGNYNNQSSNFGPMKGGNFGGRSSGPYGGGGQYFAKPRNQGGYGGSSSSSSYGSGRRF
# proteins of HEK293T cells transiently overexpressing caspase-6 (Homo sapiens, UniProt P22087), sequence (P22087 whole entry): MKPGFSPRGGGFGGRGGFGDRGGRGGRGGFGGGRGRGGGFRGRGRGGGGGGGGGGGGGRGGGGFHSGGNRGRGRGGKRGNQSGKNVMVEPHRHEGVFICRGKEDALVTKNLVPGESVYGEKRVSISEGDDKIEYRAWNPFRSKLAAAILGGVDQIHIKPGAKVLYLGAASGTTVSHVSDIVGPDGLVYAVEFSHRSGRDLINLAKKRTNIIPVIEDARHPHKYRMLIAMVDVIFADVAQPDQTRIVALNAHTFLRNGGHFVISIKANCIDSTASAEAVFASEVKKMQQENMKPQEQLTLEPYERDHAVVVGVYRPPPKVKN
# proteins of HEK293T cells transiently overexpressing caspase-6 (Homo sapiens, UniProt Q86VP6), sequence (Q86VP6 whole entry): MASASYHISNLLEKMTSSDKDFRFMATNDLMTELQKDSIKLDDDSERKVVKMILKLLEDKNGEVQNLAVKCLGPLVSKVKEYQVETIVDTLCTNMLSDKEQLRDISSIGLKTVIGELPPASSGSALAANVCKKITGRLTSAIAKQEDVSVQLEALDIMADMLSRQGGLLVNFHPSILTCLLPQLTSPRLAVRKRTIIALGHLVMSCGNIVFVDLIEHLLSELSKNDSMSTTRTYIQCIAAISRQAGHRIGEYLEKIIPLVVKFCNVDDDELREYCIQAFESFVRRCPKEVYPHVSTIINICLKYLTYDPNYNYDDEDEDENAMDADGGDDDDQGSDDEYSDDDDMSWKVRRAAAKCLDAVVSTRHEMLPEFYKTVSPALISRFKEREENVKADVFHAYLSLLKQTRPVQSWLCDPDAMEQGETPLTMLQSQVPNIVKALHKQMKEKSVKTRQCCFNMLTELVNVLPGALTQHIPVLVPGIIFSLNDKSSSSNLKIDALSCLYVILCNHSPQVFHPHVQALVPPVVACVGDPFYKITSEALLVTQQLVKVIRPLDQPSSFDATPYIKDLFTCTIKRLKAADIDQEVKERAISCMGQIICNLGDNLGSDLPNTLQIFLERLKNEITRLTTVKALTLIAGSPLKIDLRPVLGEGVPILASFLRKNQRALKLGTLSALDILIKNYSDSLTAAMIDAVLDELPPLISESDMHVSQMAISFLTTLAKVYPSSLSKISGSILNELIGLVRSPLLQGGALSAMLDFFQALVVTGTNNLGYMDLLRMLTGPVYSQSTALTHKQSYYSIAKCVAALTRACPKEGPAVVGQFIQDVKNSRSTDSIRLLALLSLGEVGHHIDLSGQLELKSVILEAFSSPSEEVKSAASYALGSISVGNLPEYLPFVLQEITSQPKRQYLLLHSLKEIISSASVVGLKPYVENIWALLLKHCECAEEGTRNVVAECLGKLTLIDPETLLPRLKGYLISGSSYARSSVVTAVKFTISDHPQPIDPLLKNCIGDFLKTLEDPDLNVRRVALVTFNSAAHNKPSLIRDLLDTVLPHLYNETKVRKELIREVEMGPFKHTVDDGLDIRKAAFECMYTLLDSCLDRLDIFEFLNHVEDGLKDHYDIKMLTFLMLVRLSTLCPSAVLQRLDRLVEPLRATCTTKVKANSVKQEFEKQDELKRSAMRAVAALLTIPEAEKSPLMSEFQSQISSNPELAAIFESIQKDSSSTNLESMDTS
# proteins of HEK293T cells transiently overexpressing caspase-6 (Homo sapiens, UniProt Q14247), sequence (Q14247 whole entry): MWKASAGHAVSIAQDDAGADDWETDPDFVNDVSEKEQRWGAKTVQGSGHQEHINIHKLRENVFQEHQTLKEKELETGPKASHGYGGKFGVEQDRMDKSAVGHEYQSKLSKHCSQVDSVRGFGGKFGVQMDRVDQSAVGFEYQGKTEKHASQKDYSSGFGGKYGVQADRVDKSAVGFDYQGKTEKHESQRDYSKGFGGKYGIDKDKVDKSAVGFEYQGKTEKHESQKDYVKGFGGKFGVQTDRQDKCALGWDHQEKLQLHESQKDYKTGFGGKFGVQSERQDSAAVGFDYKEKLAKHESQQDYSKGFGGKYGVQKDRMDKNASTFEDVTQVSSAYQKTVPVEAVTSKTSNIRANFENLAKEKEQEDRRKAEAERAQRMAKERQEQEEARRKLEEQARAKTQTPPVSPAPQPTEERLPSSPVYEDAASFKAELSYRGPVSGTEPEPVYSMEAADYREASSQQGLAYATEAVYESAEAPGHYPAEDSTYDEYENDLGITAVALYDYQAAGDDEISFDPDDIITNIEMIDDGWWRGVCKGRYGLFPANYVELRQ
# proteins of HEK293T cells transiently overexpressing caspase-6 (Homo sapiens, UniProt Q14157), sequence (Q14157 whole entry): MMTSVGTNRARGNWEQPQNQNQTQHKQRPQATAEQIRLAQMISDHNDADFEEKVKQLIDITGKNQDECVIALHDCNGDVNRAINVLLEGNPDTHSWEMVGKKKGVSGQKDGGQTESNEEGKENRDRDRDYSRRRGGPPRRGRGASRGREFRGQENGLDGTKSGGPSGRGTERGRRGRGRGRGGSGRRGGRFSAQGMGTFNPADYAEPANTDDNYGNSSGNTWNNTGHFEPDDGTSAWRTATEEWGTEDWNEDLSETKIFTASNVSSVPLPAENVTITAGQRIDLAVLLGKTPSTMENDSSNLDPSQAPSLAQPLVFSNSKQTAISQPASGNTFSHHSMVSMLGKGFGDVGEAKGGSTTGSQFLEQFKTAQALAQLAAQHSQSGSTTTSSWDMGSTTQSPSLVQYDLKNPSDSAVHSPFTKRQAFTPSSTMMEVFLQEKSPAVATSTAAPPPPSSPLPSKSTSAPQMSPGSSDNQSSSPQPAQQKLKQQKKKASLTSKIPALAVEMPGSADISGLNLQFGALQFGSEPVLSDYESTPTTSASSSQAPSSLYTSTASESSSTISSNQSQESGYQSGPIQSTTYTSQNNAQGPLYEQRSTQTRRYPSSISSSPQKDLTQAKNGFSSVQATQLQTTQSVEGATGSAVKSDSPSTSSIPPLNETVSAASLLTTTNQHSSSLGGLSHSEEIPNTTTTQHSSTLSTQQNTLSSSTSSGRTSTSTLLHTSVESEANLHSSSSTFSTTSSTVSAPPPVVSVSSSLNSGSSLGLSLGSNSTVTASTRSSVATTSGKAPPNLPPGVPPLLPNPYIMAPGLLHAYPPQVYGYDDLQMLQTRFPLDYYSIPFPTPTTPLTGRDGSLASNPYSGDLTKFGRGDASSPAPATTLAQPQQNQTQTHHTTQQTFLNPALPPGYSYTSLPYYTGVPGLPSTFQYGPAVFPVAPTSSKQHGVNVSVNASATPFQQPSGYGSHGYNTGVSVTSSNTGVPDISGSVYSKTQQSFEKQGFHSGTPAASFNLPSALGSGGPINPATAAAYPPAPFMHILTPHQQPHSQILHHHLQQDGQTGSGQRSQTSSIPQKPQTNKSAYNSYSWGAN
# proteins of HEK293T cells transiently overexpressing caspase-6 (Homo sapiens, UniProt Q14444), sequence (Q14444 whole entry): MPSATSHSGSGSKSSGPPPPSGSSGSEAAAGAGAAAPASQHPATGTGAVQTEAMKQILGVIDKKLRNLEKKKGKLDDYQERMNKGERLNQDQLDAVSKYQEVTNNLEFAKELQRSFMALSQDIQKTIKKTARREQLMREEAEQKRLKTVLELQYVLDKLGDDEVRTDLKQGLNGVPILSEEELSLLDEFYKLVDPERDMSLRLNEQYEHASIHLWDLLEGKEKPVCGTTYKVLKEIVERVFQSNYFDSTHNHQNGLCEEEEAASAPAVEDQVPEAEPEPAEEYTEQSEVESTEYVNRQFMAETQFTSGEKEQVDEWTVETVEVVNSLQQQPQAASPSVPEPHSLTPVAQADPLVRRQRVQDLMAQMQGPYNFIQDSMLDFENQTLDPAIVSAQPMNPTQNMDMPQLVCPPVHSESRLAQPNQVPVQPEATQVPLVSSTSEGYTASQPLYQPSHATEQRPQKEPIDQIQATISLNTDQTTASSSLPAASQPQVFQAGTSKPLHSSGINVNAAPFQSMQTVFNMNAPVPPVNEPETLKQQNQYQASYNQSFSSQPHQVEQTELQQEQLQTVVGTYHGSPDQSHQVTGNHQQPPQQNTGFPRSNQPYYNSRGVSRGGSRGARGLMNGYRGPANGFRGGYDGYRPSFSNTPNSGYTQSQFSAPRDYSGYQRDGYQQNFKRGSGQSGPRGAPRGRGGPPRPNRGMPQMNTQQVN
structure (smiles),measurement,setting,value
C#CCOc1ccc([C@@H]2C[C@@H](C(=O)Nc3ccc(OC(F)(F)F)cc3)CN(S(=O)(=O)C=C)C2)cc1 (relative stereo) [13-t],enrich.exp.med,[1],0.1675
same,enrich.exp.med,"[2]; exp_ref Probe, analysis C6",0.3216
same,enrich.exp.med.lin,[2],1.2497
same,enrich.exp.med.log2,[2],0.3216
same,enrich.exp.med,[3],0.8492
same,enrich.exp.med,[4],0.5687
same,enrich.exp.med,[5],0.404
same,enrich.exp.med,[6],1.006
same,enrich.exp.med,[7],0.4261
same,enrich.exp.med,"[8]; exp_ref Probe, analysis C6",0.7965
same,enrich.exp.med.lin,[8],1.737
same,enrich.exp.med.log2,[8],0.7965
same,enrich.exp.med,[9],0.1212
same,enrich.exp.med,[10],0.9081
same,enrich.exp.med,[11],1.576
same,enrich.exp.med,[12],-0.84
same,enrich.exp.med,[13],-0.3871
same,enrich.exp.med,[14],0.06778
same,enrich.exp.med,[15],1.571
same,enrich.exp.med,[16],0.5563
same,enrich.exp.med,[17],1.9
same,enrich.exp.med,[18],-0.4971
same,enrich.exp.med,[19],2.103
